This is an account of results in US7777077B2, “Dual-acting antihypertensive agents” (Theravance, Inc., priority 2007, dated 2010).

The structures appear in SMILES notation.

The target in one test is T1, human AT1 receptor (Homo sapiens, UniProt P30556).
T1 construct: expressed in transfected cells; membranes
T1 sequence (P30556 1-359): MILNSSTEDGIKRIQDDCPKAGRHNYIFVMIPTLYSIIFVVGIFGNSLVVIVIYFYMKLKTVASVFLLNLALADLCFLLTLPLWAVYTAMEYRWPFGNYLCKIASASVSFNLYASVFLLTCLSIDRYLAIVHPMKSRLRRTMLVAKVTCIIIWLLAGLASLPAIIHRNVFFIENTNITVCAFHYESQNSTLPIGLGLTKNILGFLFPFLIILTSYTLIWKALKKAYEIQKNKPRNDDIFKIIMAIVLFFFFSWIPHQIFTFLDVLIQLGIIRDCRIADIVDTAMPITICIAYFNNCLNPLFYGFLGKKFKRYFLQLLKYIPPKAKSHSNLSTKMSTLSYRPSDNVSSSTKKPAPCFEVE
Description: AT1 radioligand binding assay. The note with it: [Eu]AngII displacement, membranes of CHO-K1 cells expressing human AT1; read-out: pKi at the AT1 receptor (converted). How it is done: These in vitro assays were used to assess the ability of test compounds to bind to the AT1 and the AT2 receptors.
Chinese hamster ovary (CHO-K1) derived cell lines stably expressing the cloned human AT1 or AT2 receptors, respectively, were grown in HAM's-F12 medium supplemented with 10% fetal bovine serum, 10 μg/ml penicillin/streptomycin, and 500 μg/ml geneticin in a 5% CO2 humidified incubator at 37° C. AT2 receptor expressing cells were grown in the additional presence of 100 nM PD123,319 (AT2 antagonist). When cultures reached 80-95% confluence, the cells were washed thoroughly in PBS and lifted with 5 mM EDTA. Cells were pelleted by centrifugation and snap frozen in MeOH-dry ice and stored at −80° C. until further use.
For membrane preparation, cell pellets were resuspended in lysis buffer (25 mM Tris/HCl pH 7.5 at 4° C., 1 mM EDTA, and one tablet of Complete Protease Inhibitor Cocktail Tablets with 2 mM EDTA per 50 mL buffer (Roche cat.#1697498, Roche Molecular Biochemicals, Indianapolis, Ind.)) and homogenized using a tight-fitting Dounce glass homogenizer (10 strokes) on ice. The homogenate was centrifuged at 1000×g, the supernatant was collected and centrifuged at 20,000×g. […] Protein concentration of the membrane suspension was determined by the method described in Bradford (1976) Anal Biochem. 72:248-54. […]

Another test deals with NEP enzyme (UniProt P08473). The test is described as follows: In vitro NEP enzyme inhibition assay. Type of test: biochemical. To be noted: fluorogenic peptide substrate; human or rat NEP not given. The procedure: The inhibitory activities of compounds at human and rat NEP and human ACE were determined using in vitro assays as described below.
Rat NEP was prepared from the kidneys of adult Sprague Dawley rats. Whole kidneys were washed in cold PBS and brought up in ice-cold lysis buffer (1% Triton X-114, 150 mM NaCl, 50 mM Tris pH 7.5; Bordier (1981) J. Biol. Chem. 256:1604-1607) in a ratio of 5 mL of buffer for every gram of kidney. Samples were homogenized using a polytron hand held tissue grinder on ice. Homogenates were centrifuged at 1000×g in a swinging bucket rotor for 5 minutes at 3° C. The pellet was resuspended in 20 mL of ice cold lysis buffer and incubated on ice for 30 minutes. […] Protein concentrations were quantitated using a BCA detection system with BSA as a standard. […]
The assays were performed in 384-well white opaque plates at room temperature using the respective fluorogenic peptides at a concentration of 10 μM in assay buffer (50 mM Tris/HCl at 25° C., 100 mM NaCl, 0.01% Tween-20, 1 μM Zn, 0.025% BSA). […] The rat NEP enzyme preparation was used at a concentration that yielded quantitative proteolysis of 3 μM of Mca-RRL within 20 minutes at room temperature.
Assays were started by adding 25 μL of enzyme to 12.5 μL of test compound at 12 concentrations ([…]). […] Plates were read on a fluorometer with excitation and emission wavelengths set to 320 nm and 405 nm, respectively. […]

Turning to `CCCC(=O)N(CCNC(=O)C(CS)CC(C)C)Cc1ccc(-c2ccccc2-c2nnn[nH]2)cc1` (centres unmarked) [Example 1, 2-Mercaptomethyl-4-methylpentanoic Acid (2-Butyryl-[2′-(1H-tetrazol-5-yl)biphenyl-4-ylmethyl]aminoethyl)amide], at human AT1 receptor, the Ki is below 100 nM. At NEP enzyme, the “pIC50 for the NEP enzyme” value was “greater than or equal to 7.0”.
